Experimental data from patent US20130079345A1, “[…] ACTIVE DISUBSTITUTED TRIAZINE DERIVATIVES” (BAYER INTELLECTUAL PROPERTY GMBH, priority 2010, published 2013).
Where a name gives a salt, the structure may show the parent alone. Each block holds one molecule with its values, some of them ahead of it.

Experiments:
MDAMB468 cells = assay: Cell viability assay, MDAMB468 cells; type: cell-based; details: Homo sapiens, MDA-MB-468, 72 h, Cell Titer Glo
Experimental: (§1) HeLa- or MDAMB468-Cells or MATU ADR, H460, DU145, CACO-2 or B16F10 cells were maintained in RPMI 1640 or McCoy's 5A cell culture medium+glutamine (PAN Biotech GmbH, Aidenbach, Germany; order no. P04-22100; P04-05500) supplemented with 10% fetal calf serum “Gold” (PAA Laboratories GmbH, Pasching, Austria; order no. A15-151) and grown at 37° C., 5% CO2. For the cell viability assay, cells were seeded with a density of 400 (Hela cells, DSMZ Braunschweig order no. ACC57) or 800 (MDAMB468 cells, ATCC order no. HTB-132) per well in 25 μL in 384-well plates (Greiner Bio-One, Frickenhausen, Germany; order no. 781080). After overnight incubation at 37° C./5% CO2, 25 nL or 75 nL compound were added to each sample well by using BIOMEK FXP Laboratory Automation Workstation (Beckman Coulter, USA). Wells with cells and 0.1% or 0.3% DMSO in culture medium were used as positive controls, wells with cells and 10 μM staurosporine in culture medium were used as negative controls. The cells were incubated with the compounds for 72 h at 37° C./5% CO2. For measurement of cell viability […] Cell Titer Glo reagent (Promega, Madison, USA; order no. G7573), 1:2 diluted with cell culture medium, was added to each well. The 384well-plates were placed for 2 min on an orbital microplate shaker and incubated for further 10 min at room temperature to stabilize the luminescence signal. Luminescence was measured by Envision Plate Reader (Perkin Elmer, USA). EC50 values were calculated with the software Excel Fit (IDBS, Guildford, UK) from 3-fold dilution series comprising at least 8 concentrations in duplicates.

HeLa cells = assay: Cell viability, HeLa cells; type: cell-based; details: Homo sapiens
Experimental: as §1
(§2) Cultivated tumour cells (NCl-H460, human non-small cell lung carcinoma cells, ATCC HTB-177; DU 145, hormone-independent human prostate carcinoma cells, ATCC HTB-81; HeLa-MaTu, human cervical carcinoma cells, EPO-GmbH, Berlin; HeLa-MaTu-ADR, multidrug-resistant human cervical carcinoma cells, EPO-GmbH, Berlin; HeLa human cervical tumour cells, ATCC CCL-2; Caco-2 human colorectal carcinoma, ATCC HTB-37; B16F10 mouse melanoma cells, ATCC CRL-6475) were plated at a density of 5,000 cells/well (DU145, HeLa-MaTu-ADR), 3,000 cells/well (NCl-H460, HeLa-MaTu, HeLa), 1,500 cells/well (Caco-2), or 1,000 cells/well (B16F10) in a 96-well multititer plate in 200 μL of their respective growth medium supplemented with 10% fetal calf serum. After 24 hours, the cells of one plate (zero-point plate) were stained with crystal violet (see below), while the medium of the other plates was replaced by fresh culture medium (200 μl), to which the test substances were added in various concentrations (0 μM as well as in the range of 0.001 to 10 μM; the final concentration of the solvent dimethyl sulfoxide was 0.5%). The cells were incubated in the presence of test substances for 4 days. Cell proliferation was determined by staining the cells with crystal violet: The cells were fixed by adding 20 μl/measuring point of an 11% glutaric aldehyde solution at room temperature for 15 minutes. After three washing cycles of the fixed cells with water, the plates were dried at room temperature. The cells were stained by adding 100 μl/measuring point of a 0.1% crystal violet solution (pH 3.0). After three washing cycles of the stained cells with water, the plates were dried at room temperature. The dye was dissolved by adding 100 μl/measuring point of a 10% acetic acid solution. The extinction was determined by photometry at a wavelength of 595 nm. The change of cell number, in percent, was calculated by normalization of the measured values to the extinction values of the zero-point plate (equivalent to 0%) and the extinction of the untreated (0 μm) cells (equivalent to 100%). The IC50 values were determined by means of a 4 parameter fit using the company's own software.

MaTu/ADR cells = assay: Cell viability, MaTu/ADR cells; type: cell-based; details: Homo sapiens
Experimental: HeLa- or MDAMB468-Cells or MATU ADR, H460, DU145, CACO-2 or B16F10 cells were maintained in RPMI 1640 or McCoy's 5A cell culture medium+glutamine (PAN Biotech GmbH, Aidenbach, Germany; order no. P04-22100; P04-05500) supplemented with 10% fetal calf serum “Gold” (PAA Laboratories GmbH, Pasching, Austria; order no. A15-151) and grown at 37° C., 5% CO2. For the cell viability assay, cells were seeded with a density of 400 (Hela cells, DSMZ Braunschweig order no. ACC57) or 800 (MDAMB468 cells, ATCC order no. HTB-132) per well in 25 μL in 384-well plates (Greiner Bio-One, Frickenhausen, Germany; order no. 781080). After overnight incubation at 37° C./5% CO2, 25 nL or 75 nL compound were added to each sample well by using BIOMEK FXP Laboratory Automation Workstation (Beckman Coulter, USA). Wells with cells and 0.1% or 0.3% DMSO in culture medium were used as positive controls, wells with cells and 10 μM staurosporine in culture medium were used as negative controls. The cells were incubated with the compounds for 72 h at 37° C./5% CO2. For measurement of cell viability […] Cell Titer Glo reagent (Promega, Madison, USA; order no. G7573), 1:2 diluted with cell culture medium, was added to each well. The 384well-plates were placed for 2 min on an orbital microplate shaker and incubated for further 10 min at room temperature to stabilize the luminescence signal. Luminescence was measured by Envision Plate Reader (Perkin Elmer, USA). […]
Cultivated tumour cells (NCl-H460, human non-small cell lung carcinoma cells, ATCC HTB-177; DU 145, hormone-independent human prostate carcinoma cells, ATCC HTB-81; HeLa-MaTu, human cervical carcinoma cells, EPO-GmbH, Berlin; HeLa-MaTu-ADR, multidrug-resistant human cervical carcinoma cells, EPO-GmbH, Berlin; HeLa human cervical tumour cells, ATCC CCL-2; Caco-2 human colorectal carcinoma, ATCC HTB-37; B16F10 mouse melanoma cells, ATCC CRL-6475) were plated at a density of 5,000 cells/well (DU145, HeLa-MaTu-ADR), 3,000 cells/well (NCl-H460, HeLa-MaTu, HeLa), 1,500 cells/well (Caco-2), or 1,000 cells/well (B16F10) in a 96-well multititer plate in 200 μL of their respective growth medium supplemented with 10% fetal calf serum. […] Cell proliferation was determined by staining the cells with crystal violet: The cells were fixed by adding 20 μl/measuring point of an 11% glutaric aldehyde solution at room temperature for 15 minutes. […] The extinction was determined by photometry at a wavelength of 595 nm. The change of cell number, in percent, was calculated by normalization of the measured values to the extinction values of the zero-point plate (equivalent to 0%) and the extinction of the untreated (0 μm) cells (equivalent to 100%). The IC50 values were determined by means of a 4 parameter fit using the company's own software.

H460 cells = assay: Cell viability, H460 cells; type: cell-based, human
Experimental: as §1
as §2, with “The cells were stained by adding 100 μl/measuring point of a 0.1% crystal violet solution (pH 3.0). After three washing cycles of the stained cells with water, the plates were dried at room temperature. The dye was dissolved by adding 100 μl/measuring point of a 10% acetic acid solution.” left out

DU145 cells = assay: Cell viability, DU145 cells; type: cell-based, human
Experimental: as §1
as §2, with “The cells were stained by adding 100 μl/measuring point of a 0.1% crystal violet solution (pH 3.0). After three washing cycles of the stained cells with water, the plates were dried at room temperature. The dye was dissolved by adding 100 μl/measuring point of a 10% acetic acid solution.” left out

CACO-2 cells = assay: Cell viability, CACO-2 cells; type: cell-based, human
Experimental: as §1
as §2, with “The cells were stained by adding 100 μl/measuring point of a 0.1% crystal violet solution (pH 3.0). After three washing cycles of the stained cells with water, the plates were dried at room temperature. The dye was dissolved by adding 100 μl/measuring point of a 10% acetic acid solution.” left out

B16F10 cells = assay: Cell viability, B16F10 cells; type: cell-based, mouse
Experimental: as §1
as §2, with “The cells were stained by adding 100 μl/measuring point of a 0.1% crystal violet solution (pH 3.0). After three washing cycles of the stained cells with water, the plates were dried at room temperature. The dye was dissolved by adding 100 μl/measuring point of a 10% acetic acid solution.” left out

IC50 (MDAMB468 cells): 4610 nM
Structure (SMILES): COc1ccccc1-c1ncnc(Nc2cccc(CCS(N)(=O)=O)c2)n1 [Compound D1, 2-[3-((4-(2-Methoxyphenyl)-1,3,5-triazin-2-yl)amino)phenyl]ethanesulfonamide]

IC50 (MDAMB468 cells): 830 nM
Structure (SMILES): COc1ccccc1-c1ncnc(Nc2cccc([N+](=O)[O-])c2)n1 [Compound H1, 4-(2-Methoxyphenyl)-N-(3-nitrophenyl)-1,3,5-triazine-2-amine]

IC50 (MDAMB468 cells): 4500 nM
Structure (SMILES): CCCS(=O)(=O)Nc1cccc(Nc2ncnc(-c3ccccc3OC)n2)c1 [Compound L1, N-[3-((4-(2-Methoxyphenyl)-1,3,5-triazin-2-yl)amino)phenyl]-propanesulfonamide]

IC50 (MDAMB468 cells): 13300 nM
Structure (SMILES): COc1ccccc1-c1ncnc(Nc2ccccc2)n1 [Compound P1, 4-(2-Methoxyphenyl)-N-phenyl-1,3,5-triazine-2-amine]

IC50 (HeLa cells): 2700 nM
Structure (SMILES): CC(C)Oc1cc(F)ccc1-c1ncnc(Nc2cccc(CS(N)(=O)=O)c2)n1 [Compound U2, 1-[3-({4-[4-fluoro-2-(propan-2-yloxy)phenyl]-1,3,5-triazin-2-yl}amino)phenyl]methanesulfonamide]

IC50 (HeLa cells): 10000 nM
Structure (SMILES): N#Cc1cc(F)ccc1-c1ncnc(Nc2cccc(CS(N)(=O)=O)c2)n1 [Compound U3, 1-(3-{[4-(2-cyano-4-fluorophenyl)-1,3,5-triazin-2-yl]amino}phenyl)methanesulfonamide]

IC50 (HeLa cells): 1200 nM
Structure (SMILES): COc1cc(F)c(F)cc1-c1ncnc(Nc2cccc(CS(N)(=O)=O)c2)n1 [Compound U7, 1-(3-{[4-(4,5-difluoro-2-methoxyphenyl)-1,3,5-triazin-2-yl]amino}phenyl)methanesulfonamide]

IC50 (HeLa cells): 4200 nM
Structure (SMILES): COc1cc(F)ccc1-c1ncnc(Nc2ccc(S(C)(=O)=O)nc2)n1 [Compound U8, 4-(4-fluoro-2-methoxyphenyl)-N-[6-(methylsulfonyl)pyridin-3-yl]-1,3,5-triazin-2-amine]

The remaining lines, values behind:

Structure (SMILES): COc1ccccc1-c1ncnc(Nc2cccc(CS(N)(=O)=O)c2)n1 [B1′, 3-[(4-(2-Methoxyphenyl)-1,3,5-triazin-2-yl)amino]benzenemethanesulfonamide trifluoroacetic acid salt]
IC50 (MDAMB468 cells): 2990 nM
IC50 (HeLa cells): 3200 nM
IC50 (MaTu/ADR cells): 3200 nM
IC50 (H460 cells; Homo sapiens, NCI-H460): 3500 nM
IC50 (DU145 cells; Homo sapiens, DU-145): 3800 nM
IC50 (CACO-2 cells; Homo sapiens, Caco-2): 4300 nM
IC50 (B16F10 cells; Mus musculus, B16-F10): 4400 nM

Structure (SMILES): COc1cc(F)ccc1-c1ncnc(Nc2cccc(CS(N)(=O)=O)c2)n1 [B2′, 1-(3-{[4-(4-fluoro-2-methoxyphenyl)-1,3,5-triazin-2-yl]amino}phenyl)methanesulfonamide hydrochloride]
IC50 (H460 cells; hydrochloride): 1500 nM
IC50 (DU145 cells; hydrochloride): 1000 nM
IC50 (CACO-2 cells; hydrochloride): 1500 nM
IC50 (B16F10 cells; hydrochloride): 1100 nM

Structure (SMILES): NS(=O)(=O)Cc1cccc(Nc2ncnc(-c3ccccc3OCc3ccccc3)n2)c1 [B13′, 3-[(4-(2-Benzyloxyphenyl)-1,3,5-triazin-2-yl)amino]benzenemethanesulfonamide trifluoroacetic acid salt]
IC50 (MDAMB468 cells): 160 nM
IC50 (HeLa cells): 310 nM
IC50 (MaTu/ADR cells): 290 nM
IC50 (H460 cells; Homo sapiens, NCI-H460): 320 nM
IC50 (DU145 cells; Homo sapiens, DU-145): 330 nM
IC50 (CACO-2 cells; Homo sapiens, Caco-2): 370 nM
IC50 (B16F10 cells; Mus musculus, B16-F10): 320 nM

Structure (SMILES): COc1ccccc1-c1ncnc(Nc2cccc(S(N)(=O)=O)c2)n1 [C1′, 3-[(4-(2-Methoxyphenyl)-1,3,5-triazin-2-yl)amino]benzenesulfonamide trifluoroacetic acid salt]
IC50 (MDAMB468 cells): 800 nM
IC50 (HeLa cells): 1000 nM
IC50 (MaTu/ADR cells): 760 nM
IC50 (H460 cells; Homo sapiens, NCI-H460): 1100 nM
IC50 (DU145 cells; Homo sapiens, DU-145): 1000 nM
IC50 (CACO-2 cells; Homo sapiens, Caco-2): 1100 nM
IC50 (B16F10 cells; Mus musculus, B16-F10): 1000 nM

Structure (SMILES): COc1cc(F)ccc1-c1ncnc(Nc2cccc(CS(N)(=O)=O)c2)n1 [Compound B2, 3-[(4-(4-Fluoro-2-methoxyphenyl)-1,3,5-triazin-2-yl)amino]benzenemethanesulfonamide]
IC50 (MDAMB468 cells): 420 nM
IC50 (HeLa cells): 1000 nM
IC50 (MaTu/ADR cells): 1000 nM
IC50 (H460 cells; Homo sapiens, NCI-H460): 1300 nM
IC50 (DU145 cells; Homo sapiens, DU-145): 1500 nM
IC50 (CACO-2 cells; Homo sapiens, Caco-2): 1600 nM
IC50 (B16F10 cells; Mus musculus, B16-F10): 1600 nM

Structure (SMILES): CNS(=O)(=O)Cc1cccc(Nc2cc(-c3ccccc3OC)ncn2)c1 [Ref2, C-{3-[6-(2-Methoxy-phenyl)-pyrimidin-4-ylamino]-phenyl}-N-methyl methanesulfonamide, reference compound]
IC50 (HeLa cells): 4600 nM

Structure (SMILES): COc1ccccc1-c1cc(Nc2cccc(CS(=O)(=O)N(C)C)c2)ncn1 [Ref4, C-{3-[6-(2-Methoxy-phenyl)-pyrimidin-4-ylamino]-phenyl}-N,N-dimethylmethanesulfonamide, reference compound]
IC50 (HeLa cells): 6100 nM
